# “And” between values parts separate entries of the source, which are not always exact repeats. Equal values may be shown once. Where a SMILES comes first, the peptide text is derived from it. [ ]: non-standard residue; d: D form. Hyp = O=C(O)[C@@H]1C[C@@H](O)CN1
# What was measured:
# MMP-9 = experiment: Example 8 main study Luminex, LPS hPBMCs: MMP-9; type: cell-based, human
# Method: (§1) Human PBMCs were pretreated with YY-101, YDE-011, YDE-043 or reference compound; Xiidra® at various concentration (ranging from […] to 500 nM) for 2 h before stimulation. An equal volume of 0.5% DMSO was used as a vehicle control. Then, the cells were treated with LPS at 5 ug/ml, which was selected based on the pilot study. The supernatants from treated cells were harvested at 24 h and placed in a 96 well for Luminex cytokine & chemokine profiling using a Luminex 200 multiplex assay (Luminex; R&D system, USA).
# (§2) The main study arm with triplicate wells per group in a 24-well plate: • 1. Blank • 2. PBMC: 0.5% DMSO • 3. PBMC+LPS (5 ug/ml) • 4. PBMC+YY-101 500 nM • 5. PBMC+YY-101 50 nM • 6. PBMC+YY-101 5 nM • 7. PBMC+YY-101 0.5 nM • 8. PBMC+LPS (5 ug/ml)+Xiidra® 500 nM • 9. PBMC+LPS (5 ug/ml)+Xiidra® 50 nM • 10. PBMC+LPS (5 ug/ml)+Xiidra® 5 nM • 11. PBMC+LPS (5 ug/ml)+Xiidra® 0.5 nM • 12. PBMC+LPS (5 ug/ml)+Xiidra® 0.05 nM • 13. PBMC+LPS (5 ug/ml)+Xiidra® 0.005 nM • 14. PBMC+LPS (5 ug/ml)+YY-101 500 nM • 15. PBMC+LPS (5 ug/ml)+YY-101 50 nM • 16. PBMC+LPS (5 ug/ml)+YY-101 5 nM • 17. PBMC+LPS (5 ug/ml)+YY-101 0.5 nM • 18. PBMC+LPS (5 ug/ml)+YY-101 0.05 nM • 19. PBMC+LPS (5 ug/ml)+YY-101 0.005 nM • 20. PBMC+LPS (5 ug/ml)+YDE-011 500 nM • 21. PBMC+LPS (5 ug/ml)+YDE-011 50 nM • 22. PBMC+LPS (5 ug/ml)+YDE-011 5 nM • 23. PBMC+LPS (5 ug/ml)+YDE-011 0.5 nM • 24. PBMC+LPS (5 ug/ml)+YDE-011 0.05 nM • 25. PBMC+LPS (5 ug/ml)+YDE-011 0.005 nM • 26. PBMC+LPS (5 ug/ml)+YDE-043 500 nM • 27. PBMC+LPS (5 ug/ml)+YDE-043 50 nM • 28. PBMC+LPS (5 ug/ml)+YDE-043 5 nM • 29. PBMC+LPS (5 ug/ml)+YDE-043 0.5 nM • 30. PBMC+LPS (5 ug/ml)+YDE-043 0.05 nM • 31. PBMC+LPS (5 ug/ml)+YDE-043 0.005 nM
# (§3) Multiplex assay was used to measure 30 cytokines and chemokines. The 1:200 diluted cell supernatant and serial dilution of the standard were dispensed into a 96 well plate at 50 ul/well. Then, the pre-mixed cocktail of antibody-coated magnetic beads was dispensed at 50 ul/well and incubated at room temperature for 2 h in a horizontal orbital microplate shaker at 800±500 rpm. The beads were washed using a magnetic device to prevent loss. The biotin-antibody was dispensed in 50 ul of each well and incubated at room temperature for 1 h in a shaker at 800±500 rpm. After washing, streptavidin-PE was added at 50 ul/well and incubated at room temperature for 30 min in a shaker under the same conditions. Finally, after washing, wash buffer (100 ul/well) was added to the plate and incubated in a shaker for 2 min. The Luminex™ 200 setting were set according to the manufacturer's protocol. The data was calculated with a standard five-parameter logistic nonlinear regression analysis of the data (xPonent software 4.2, USA). Results were presented as concentration (ng/ml or pg/ml).
# MMP-3 = experiment: Example 8 main study Luminex, LPS hPBMCs: MMP-3; type: cell-based, human; conditions: for MMP-3 Concentration: single replicates
# Method: as §1, §2, §3
# [1] = PBMC + LPS(5 ug/ml), test article 0.005 nM, Mean
# [2] = PBMC + LPS(5 ug/ml), test article 0.005 nM, single replicates
# [3] = PBMC + LPS(5 ug/ml), test article 0.05 nM, Mean
# [4] = PBMC + LPS(5 ug/ml), test article 0.05 nM, single replicates
# [5] = PBMC + LPS(5 ug/ml), test article 0.5 nM, Mean
# [6] = PBMC + LPS(5 ug/ml), test article 0.5 nM, single replicates
# [7] = PBMC + LPS(5 ug/ml), test article 5 nM, Mean
# [8] = PBMC + LPS(5 ug/ml), test article 5 nM, single replicates
# [9] = PBMC + LPS(5 ug/ml), test article 50 nM, Mean
# [10] = PBMC + LPS(5 ug/ml), test article 50 nM, single replicates
# [11] = PBMC + LPS(5 ug/ml), test article 500 nM, Mean
# [12] = PBMC + LPS(5 ug/ml), test article 500 nM, single replicates
# [13] = PBMC without LPS, test article 0.5 nM, Mean
# [14] = PBMC without LPS, test article 0.5 nM, single replicates (1st, 2nd)
# [15] = PBMC without LPS, test article 5 nM, Mean
# [16] = PBMC without LPS, test article 5 nM, single replicates (1st, 2nd)
# [17] = PBMC without LPS, test article 0.05 uM, Mean
# [18] = PBMC without LPS, test article 0.05 uM, single replicates (1st, 2nd)
# [19] = PBMC without LPS, test article 50 nM, Mean
# [20] = PBMC without LPS, test article 50 nM, single replicates (1st, 2nd)
# [21] = PBMC without LPS, test article 500 nM, Mean
# [22] = PBMC without LPS, test article 500 nM, single replicates (1st, 2nd)
# [23] = PBMC + LPS(5 ug/ml) + YY101 0.005 nM
# [24] = PBMC + LPS(5 ug/ml) + YY101 0.05 nM
# [25] = PBMC + LPS(5 ug/ml) + YY101 0.5 nM
# [26] = PBMC + LPS(5 ug/ml) + YY101 5 nM
# [27] = PBMC + LPS(5 ug/ml) + YY101 50 nM
# [28] = PBMC + LPS(5 ug/ml) + YY101 500 nM
smiles,measurement,setting,value
CC(C)C[C@H](NC(=O)CNC(=O)[C@H](CC(=O)O)NC(=O)[C@H](CCC(N)=O)NC(=O)CNC(=O)[C@@H]1C[C@@H](O)CN1)C(=O)N[C@@H](C)C(=O)NCC(=O)N1CCC[C@H]1C(=O)N[C@@H](CCCCN)C(=O)O [YY-101] (H-[Hyp]GQDGLAGPK-OH; N-terminus and C-terminus assumed),"Concentration (pg/ml), MMP-9",MMP-9; [1],4617.5 pg/mL
same,MFI (Bead name: MMP-9),MMP-9; [1],31.0
same,"Concentration (pg/ml), MMP-9",MMP-9; [2],3688.0 pg/mL and 4925.2 pg/mL and 5239.4 pg/mL
same,MFI (Bead name: MMP-9),MMP-9; [2],28.0 and 32.0 and 33.0
same,"Concentration (pg/ml), MMP-9",MMP-9; [3],4977.8 pg/mL
same,MFI (Bead name: MMP-9),MMP-9; [3],32.2
same,"Concentration (pg/ml), MMP-9",MMP-9; [4],5239.4 pg/mL and 4925.2 pg/mL and 4768.8 pg/mL
same,MFI (Bead name: MMP-9),MMP-9; [4],33.0 and 32.0 and 31.5
same,"Concentration (pg/ml), MMP-9",MMP-9; [5],5239.4 pg/mL
same,MFI (Bead name: MMP-9),MMP-9; [5],33.0
same,"Concentration (pg/ml), MMP-9",MMP-9; [6],5239.4 pg/mL
same,MFI (Bead name: MMP-9),MMP-9; [6],33.0
same,"Concentration (pg/ml), MMP-9",MMP-9; [7],5138.2 pg/mL
same,MFI (Bead name: MMP-9),MMP-9; [7],32.7
same,"Concentration (pg/ml), MMP-9",MMP-9; [8],5239.4 pg/mL and 4302.5 pg/mL and 5872.9 pg/mL
same,MFI (Bead name: MMP-9),MMP-9; [8],33.0 and 30.0 and 35.0
same,"Concentration (pg/ml), MMP-9",MMP-9; [9],5239.9 pg/mL
same,MFI (Bead name: MMP-9),MMP-9; [9],33.0
same,"Concentration (pg/ml), MMP-9",MMP-9; [10],5239.4 pg/mL and 4925.2 pg/mL and 5555.3 pg/mL
same,MFI (Bead name: MMP-9),MMP-9; [10],33.0 and 32.0 and 34.0
same,"Concentration (pg/ml), MMP-9",MMP-9; [11],5135.8 pg/mL
same,MFI (Bead name: MMP-9),MMP-9; [11],32.7
same,"Concentration (pg/ml), MMP-9",MMP-9; [12],4612.9 pg/mL and 5239.4 pg/mL and 5555.3 pg/mL
same,MFI (Bead name: MMP-9),MMP-9; [12],31.0 and 33.0 and 34.0
same,"Concentration (pg/ml), MMP-9",MMP-9; [13],16511.2 pg/mL
same,MFI (Bead name: MMP-9),MMP-9; [13],66.5
same,"Concentration (pg/ml), MMP-9",MMP-9; [14],12836.1 pg/mL and 20186.4 pg/mL
same,MFI (Bead name: MMP-9),MMP-9; [14],56.0 and 77.0
same,"Concentration (pg/ml), MMP-9",MMP-9; [15],14148.8 pg/mL
same,MFI (Bead name: MMP-9),MMP-9; [15],59.8
same,"Concentration (pg/ml), MMP-9",MMP-9; [16],16823.6 pg/mL and 11474.0 pg/mL
same,MFI (Bead name: MMP-9),MMP-9; [16],67.5 and 52.0
same,"Concentration (pg/ml), MMP-9",MMP-9; [17],17040.0 pg/mL
same,MFI (Bead name: MMP-9),MMP-9; [17],68.0
same,"Concentration (pg/ml), MMP-9",MMP-9; [18],20901.3 pg/mL and 13178.7 pg/mL
same,MFI (Bead name: MMP-9),MMP-9; [18],79.0 and 57.0
same,"Concentration (pg/ml), MMP-9",MMP-9; [19],10636.2 pg/mL
same,MFI (Bead name: MMP-9),MMP-9; [19],49.5
same,"Concentration (pg/ml), MMP-9",MMP-9; [20],11813.2 pg/mL and 9459.2 pg/mL
same,MFI (Bead name: MMP-9),MMP-9; [20],53.0 and 46.0
same,"Concentration (pg/ml), MMP-9",MMP-9; [21],11140.0 pg/mL
same,MFI (Bead name: MMP-9),MMP-9; [21],51.0
same,"Concentration (pg/ml), MMP-9",MMP-9; [22],10126.8 pg/mL and 12153.3 pg/mL
same,MFI (Bead name: MMP-9),MMP-9; [22],48.0 and 54.0
same,"MMP-3 Concentration, Mean",MMP-3; [23],7549.8 pg/mL
same,MMP-3 Concentration,MMP-3; [23],7549.7 pg/mL and 7474.3 pg/mL and 7625.3 pg/mL
same,"MMP-3 Concentration, Mean",MMP-3; [24],8082.3 pg/mL
same,MMP-3 Concentration,MMP-3; [24],7776.9 pg/mL and 8541.1 pg/mL and 7928.9 pg/mL
same,"MMP-3 Concentration, Mean",MMP-3; [25],7751.6 pg/mL
same,MMP-3 Concentration,MMP-3; [25],7701.1 pg/ml and 7776.9 pg/ml (2×)
same,"MMP-3 Concentration, Mean",MMP-3; [26],7905.9 pg/mL
same,MMP-3 Concentration,MMP-3; [26],7549.7 pg/ml (2×) and 8618.2 pg/ml
same,"MMP-3 Concentration, Mean",MMP-3; [27],7777.4 pg/mL
same,MMP-3 Concentration,MMP-3; [27],7549.7 pg/mL and 7701.1 pg/mL and 8081.3 pg/mL
same,"MMP-3 Concentration, Mean",MMP-3; [28],7752.0 pg/mL
same,MMP-3 Concentration,MMP-3; [28],8043.1 pg/mL and 7663.2 pg/mL and 7549.7 pg/mL
same,"MMP-3 Concentration, Mean","MMP-3; PBMC + YY101 0.5 nM, no LPS",6246.3 pg/mL
same,MMP-3 Concentration,"MMP-3; PBMC + YY101 0.5 nM, no LPS",6062.8 pg/mL and 6429.9 pg/mL
same,"MMP-3 Concentration, Mean","MMP-3; PBMC + YY101 5 nM, no LPS",6246.0 pg/mL
same,MMP-3 Concentration,"MMP-3; PBMC + YY101 5 nM, no LPS",6172.6 pg/mL and 6319.4 pg/mL
same,"MMP-3 Concentration, Mean","MMP-3; PBMC + YY101 0.05 uM, no LPS",6374.8 pg/mL
same,MMP-3 Concentration,"MMP-3; PBMC + YY101 0.05 uM, no LPS",6503.7 pg/mL and 6245.9 pg/mL
same,"MMP-3 Concentration, Mean","MMP-3; PBMC + YY101 50 nM, no LPS",6118.0 pg/mL
same,MMP-3 Concentration,"MMP-3; PBMC + YY101 50 nM, no LPS",6282.7 pg/mL and 5953.3 pg/mL
same,"MMP-3 Concentration, Mean","MMP-3; PBMC + YY101 500 nM, no LPS",6356.3 pg/mL
same,MMP-3 Concentration,"MMP-3; PBMC + YY101 500 nM, no LPS",6282.7 pg/mL and 6429.9 pg/mL
same,LPS-induced MMP3 (in words),"MMP-3; at as low as 5 μM, LPS 5 ug/mL 24 hrs",significantly reduced

# From patent US20230146455A1, “TREATMENT OF INFLAMMATORY DISEASES WITH PEPTIDES AND PHARMACEUTICAL COMPOSITIONS” (Yuyu Pharma, Inc., priority 2020, published 2023)
